This assay has as its system L. infantum (LV50 and Drep-14) and L. major (Empa-12) promastigotes. As to the kind of experiment: MTT promastigote viability assay, stated across the three strains. It counts as cell-based, Leishmania infantum, Leishmania major. Particulars: three strains, 72 h, at the tested concentrations. An excerpt: Three Tunisian laboratory strains already described ([Oualha et al., 2019]), originally isolated from distinct clinical manifestations were used in this study: (i) L. infantum LV50 MHOM/TN/94/LV50) strain originating from a bone marrow of a visceral leishmaniasis patient, (ii) L. infantum Drep-14 (MHOM/TN/96/Drep-14) strain isolated from a lesion of a sporadic cutaneous leishmaniasis patient and (iii) L. major Empa-12 (MHOM/TN/2012/Empa-12) strain isolated from a zoonotic cutaneous leishmaniasis patient. Stocks of these parasites obtained after passage through BALB/c mice were used as previously described ([Oualha et al., 2019]). Thawed cryopreserved parasites were cultured at 22°C in RPMI-1640/Glutamax medium (Gibco BRL, Germany) containing penicillin (100 U/mL) and streptomycin (100 μg/mL) supplemented with 10% heat-inactivated Fetal Bovine Serum (FBS) (Gibco BRL, Germany).
The effect of the selected compounds on the viability of Leishmania promastigotes was evaluated by a colorimetric MTT (3-(4,5-dimethylthiazol-2yl)-2,5-diphenyl tetrazolium bromide) assay. It consists in the reduction of tetrazolium salt to a […] crystal (blue formazan) by the succinate dehydrogenase activity of mitochondria in living cells, which can be quantified by spectrophotometry. Briefly, 90 μL of promastigotes (5 × 10^5 parasites/well) harvested from the stationary growth phase of each strain were added to a 96-well culture plate and incubated with 10 μL of a range of serial dilutions of the selected compounds in technical replicates (final concentration of 1% DMSO per well) ([Ioset et al., 2009]; [Harigua-Souiai et al., 2018]). […] After 72h of incubation at 22°C, 25 μl of MTT solution (5 mg/mL) was added to each well and incubated at 22°C for 4h. Then, 150 μl of DMSO was added to each well to dissolve the blue formazan and the optical density (OD) was measured at 570 nm with a microplate reader ([…], Labsystems). Promastigotes incubated in complete medium containing 1% DMSO were used as negative control. The standard anti-Leishmania drug, Amphotericin B was used as a positive control. All experiments were performed in two technical replicates and repeated three times in independent experiments. The mean percentage of promastigotes viability was calculated from the Optical Density at 570 nm as follows:
Promastigote viability (%)= [(ODcompound− ODblank)/(ODnegative control −ODblank)]*100
Results were expressed as the mean value of the percentage of promastigotes viability ± standard deviation (SD).
`CCCSc1ccc2nc(NC(=O)OC)[nH]c2c1` [Albendazole]: the “Effect on promastigote viability” value is “no effectiveness”.
Under `NS(=O)(=O)c1cc2c(cc1Cl)N=C(CSCc1ccccc1)NS2(=O)=O` [Benzthiazide] stands “no effectiveness”.
As for `C=C(CC)C(=O)c1ccc(OCC(=O)O)c(Cl)c1Cl` [Ethacrynic acid], the “Effect on promastigote viability” value is “no effectiveness”.
The value for `CCc1cc(C(N)=S)ccn1` [Ethionamide] was “no effectiveness”; that for `Nc1nc(O)c2ncn(COC(CO)CO)c2n1` [Ganciclovir] was “no effectiveness”.

The values above are taken from PMC11464777, “Approved drugs successfully repurposed against Leishmania based on machine learning predictions” (Frontiers in Cellular and Infection Microbiology, 2024).
